Numbers after ± are expanded uncertainties.
Conditions: Liquid, Vibrating tube method

CCC[n+]1ccccc1C.O=S(=O)([N-]S(=O)(=O)C(F)(F)F)C(F)(F)F
Conditions	mass density [kg/m3]
283.15 K, 100 kPa	1478.5 ± 0.7
283.15 K, 2500 kPa	1480.5 ± 0.7
283.15 K, 5000 kPa	1482.1 ± 0.7
283.15 K, 7500 kPa	1483.7 ± 0.8
283.15 K, 10000 kPa	1485.4 ± 0.8
283.15 K, 15000 kPa	1488.6 ± 0.9
283.15 K, 20000 kPa	1491.5 ± 1
283.15 K, 25000 kPa	1494.5 ± 1.1
283.15 K, 30000 kPa	1497.3 ± 1.2
283.15 K, 35000 kPa	1500.1 ± 1.3
283.15 K, 45000 kPa	1505.5 ± 1.6
283.15 K, 55000 kPa	1510.5 ± 1.8
283.15 K, 65000 kPa	1515.3 ± 2
288.15 K, 100 kPa	1473.7 ± 0.6
288.15 K, 2500 kPa	1475.7 ± 0.7
288.15 K, 5000 kPa	1477.3 ± 0.7
288.15 K, 7500 kPa	1479 ± 0.8
288.15 K, 10000 kPa	1480.6 ± 0.8
288.15 K, 15000 kPa	1483.7 ± 0.9
288.15 K, 20000 kPa	1486.8 ± 1
288.15 K, 25000 kPa	1489.9 ± 1.1
288.15 K, 30000 kPa	1492.7 ± 1.2
288.15 K, 35000 kPa	1495.6 ± 1.3
288.15 K, 45000 kPa	1500.9 ± 1.5
288.15 K, 55000 kPa	1506 ± 1.8
288.15 K, 65000 kPa	1510.9 ± 2
293.15 K, 100 kPa	1469 ± 0.6
293.15 K, 2500 kPa	1470.9 ± 0.7
293.15 K, 5000 kPa	1472.6 ± 0.7
293.15 K, 7500 kPa	1474.3 ± 0.8
293.15 K, 10000 kPa	1475.9 ± 0.8
293.15 K, 15000 kPa	1479.2 ± 0.9
293.15 K, 20000 kPa	1482.3 ± 1
293.15 K, 25000 kPa	1485.3 ± 1.1
293.15 K, 30000 kPa	1488.3 ± 1.2
293.15 K, 35000 kPa	1491.1 ± 1.3
293.15 K, 45000 kPa	1496.6 ± 1.5
293.15 K, 55000 kPa	1501.8 ± 1.7
293.15 K, 65000 kPa	1506.7 ± 2
298.15 K, 100 kPa	1464.2 ± 0.6
298.15 K, 2500 kPa	1466.1 ± 0.7
298.15 K, 5000 kPa	1467.8 ± 0.7
298.15 K, 7500 kPa	1469.6 ± 0.8
298.15 K, 10000 kPa	1471.2 ± 0.8
298.15 K, 15000 kPa	1474.5 ± 0.9
298.15 K, 20000 kPa	1477.7 ± 1
298.15 K, 25000 kPa	1480.8 ± 1.1
298.15 K, 30000 kPa	1483.8 ± 1.2
298.15 K, 35000 kPa	1486.6 ± 1.3
298.15 K, 45000 kPa	1492.2 ± 1.5
298.15 K, 55000 kPa	1497.4 ± 1.7
298.15 K, 65000 kPa	1502.5 ± 1.9
303.15 K, 100 kPa	1459.5 ± 0.6
303.15 K, 2500 kPa	1461.5 ± 0.7
303.15 K, 5000 kPa	1463.2 ± 0.7
303.15 K, 7500 kPa	1465 ± 0.8
303.15 K, 10000 kPa	1466.6 ± 0.8
303.15 K, 15000 kPa	1470 ± 0.9
303.15 K, 20000 kPa	1473.2 ± 1
303.15 K, 25000 kPa	1476.4 ± 1.1
303.15 K, 30000 kPa	1479.5 ± 1.2
303.15 K, 35000 kPa	1482.4 ± 1.3
303.15 K, 45000 kPa	1488 ± 1.5
303.15 K, 55000 kPa	1493.3 ± 1.7
303.15 K, 65000 kPa	1498.4 ± 1.9
308.15 K, 100 kPa	1454.8 ± 0.6
308.15 K, 2500 kPa	1456.8 ± 0.7
308.15 K, 5000 kPa	1458.5 ± 0.7
308.15 K, 7500 kPa	1460.3 ± 0.8
308.15 K, 10000 kPa	1462 ± 0.8
308.15 K, 15000 kPa	1465.4 ± 0.9
308.15 K, 20000 kPa	1468.7 ± 1
308.15 K, 25000 kPa	1471.9 ± 1.1
308.15 K, 30000 kPa	1475 ± 1.2
308.15 K, 35000 kPa	1478 ± 1.3
308.15 K, 45000 kPa	1483.7 ± 1.5
308.15 K, 55000 kPa	1489.1 ± 1.7
308.15 K, 65000 kPa	1494.2 ± 1.9
313.15 K, 100 kPa	1450 ± 0.6
313.15 K, 2500 kPa	1452.1 ± 0.7
313.15 K, 5000 kPa	1453.9 ± 0.7
313.15 K, 7500 kPa	1455.8 ± 0.8
313.15 K, 10000 kPa	1457.5 ± 0.8
313.15 K, 15000 kPa	1461 ± 0.9
313.15 K, 20000 kPa	1464.3 ± 1
313.15 K, 25000 kPa	1467.5 ± 1.1
313.15 K, 30000 kPa	1470.7 ± 1.2
313.15 K, 35000 kPa	1473.7 ± 1.3
313.15 K, 45000 kPa	1479.5 ± 1.5
313.15 K, 55000 kPa	1485 ± 1.7
313.15 K, 65000 kPa	1490.2 ± 1.9
318.15 K, 100 kPa	1445.4 ± 0.6
318.15 K, 2500 kPa	1447.4 ± 0.7
318.15 K, 5000 kPa	1449.3 ± 0.7
318.15 K, 7500 kPa	1451.1 ± 0.8
318.15 K, 10000 kPa	1452.9 ± 0.8
318.15 K, 15000 kPa	1456.4 ± 0.9
318.15 K, 20000 kPa	1459.9 ± 1
318.15 K, 25000 kPa	1463.1 ± 1.1
318.15 K, 30000 kPa	1466.4 ± 1.2
318.15 K, 35000 kPa	1469.4 ± 1.3
318.15 K, 45000 kPa	1475.3 ± 1.5
318.15 K, 55000 kPa	1480.8 ± 1.7
318.15 K, 65000 kPa	1486.1 ± 1.9
323.15 K, 100 kPa	1440.7 ± 0.6
323.15 K, 2500 kPa	1442.8 ± 0.7
323.15 K, 5000 kPa	1444.7 ± 0.7
323.15 K, 7500 kPa	1446.7 ± 0.7
323.15 K, 10000 kPa	1448.5 ± 0.8
323.15 K, 15000 kPa	1452 ± 0.9
323.15 K, 20000 kPa	1455.5 ± 1
323.15 K, 25000 kPa	1458.7 ± 1.1
323.15 K, 30000 kPa	1462 ± 1.2
323.15 K, 35000 kPa	1465.2 ± 1.3
323.15 K, 45000 kPa	1471.2 ± 1.5
323.15 K, 55000 kPa	1476.9 ± 1.7
323.15 K, 65000 kPa	1482.1 ± 1.9
328.15 K, 100 kPa	1436.1 ± 0.6
328.15 K, 2500 kPa	1438.3 ± 0.7
328.15 K, 5000 kPa	1440.2 ± 0.7
328.15 K, 7500 kPa	1442.1 ± 0.7
328.15 K, 10000 kPa	1443.9 ± 0.8
328.15 K, 15000 kPa	1447.5 ± 0.9
328.15 K, 20000 kPa	1451 ± 1
328.15 K, 25000 kPa	1454.5 ± 1.1
328.15 K, 30000 kPa	1457.8 ± 1.2
328.15 K, 35000 kPa	1460.9 ± 1.3
328.15 K, 45000 kPa	1467.1 ± 1.5
328.15 K, 55000 kPa	1472.7 ± 1.7
328.15 K, 65000 kPa	1478.1 ± 1.9
333.15 K, 100 kPa	1431.4 ± 0.6
333.15 K, 2500 kPa	1433.6 ± 0.6
333.15 K, 5000 kPa	1435.5 ± 0.7
333.15 K, 7500 kPa	1437.5 ± 0.7
333.15 K, 10000 kPa	1439.4 ± 0.8
333.15 K, 15000 kPa	1443.1 ± 0.9
333.15 K, 20000 kPa	1446.6 ± 1
333.15 K, 25000 kPa	1450.1 ± 1.1
333.15 K, 30000 kPa	1453.4 ± 1.2
333.15 K, 35000 kPa	1456.7 ± 1.2
333.15 K, 45000 kPa	1462.8 ± 1.4
333.15 K, 55000 kPa	1468.6 ± 1.6
333.15 K, 65000 kPa	1474.2 ± 1.8

Source: the NIST ThermoML archive (doi:10.1016/j.fluid.2014.08.018)
